By IC50 is commonly meant the concentration that gives 50% inhibition. The low end stands for higher potency, the high end for lower potency.

Consider eleven compounds from EP0887339A1, “Azulene derivatives and medicaments containing them” (BOEHRINGER MANNHEIM GMBH, priority 1997, dated 1998).

This assay addresses TNF-α. Description: Inhibition of TNFα in culture supernatant of LPS-stimulated peripheral human leukocytes, TNFα-specific enzyme immunoassay. The format is cell-based. Particulars: Periphere humane Leukozyten, LPS über 22 Std., Kulturüberstand. An excerpt: […] humane Leukozyten werden mit LPS über 22 Std. inkubiert. Der Kulturüberstand wird mit einem TNFα spezifischen Enzym-Immuno-Assay untersucht. Durch Vergleich der für die Messproben erhaltenen TNFα-Konzentrationen mit den ungehemmten Proben wird die prozentuale Hemmung fiir die einzelne Probe berechnet. Aus der […]. Der IC50-Wert läßt sich wie folgt ermitteln: v = v0 /(1 + [I] / IC50 ) [formula] • v = […]0 = […] ohne Inhibitor • [I] = […] IC50-Werte, der in den Beispielen beschriebenen Substanzen gegen TNF-α finden sich in der folgenden Tabelle:
With `CCOC(=O)c1c2ccc(CC(=O)O)ccc-2c(C(=O)OCC)c1N` [Beispiel 1, 2-Amino-6-carboxylmethyl-azulen-1,3-dicarbonsäurediethylester], the half-maximal inhibitory concentration (IC50) was 160 nM.

`CCOC(=O)c1c2ccc(CC(=O)O)ccc-2c(C(=O)O)c1N` [Beispiel 2, 2-Amino-6-carboxylmethyl-azulen-1,3-dicarbonsäuremonoethylester]: the midpoint of inhibition, the IC50, lay at 10500 nM.

For the compound `CCOC(=O)c1c2ccc(CC(=O)NO)ccc-2c(C(=O)OCC)c1N` [Beispiel 3, 2-Amino-6-hydroxycarbamoylmethyl-azulen-1,3-dicarbonsäurediethylester], half-maximal inhibition (IC50) was put at 1 nM.

For `CCOC(=O)c1c2ccc(CC(=O)O)ccc-2c(C(=O)OCC)c1NC(C)=O` [Beispiel 4, 2-Acetylamino-6-carboxymethyl-azulen-1,3-dicarbonsäurediethylester], half-maximal inhibition (IC50) required 4100 nM.

Turning to `CCOC(=O)c1c2ccc(CC(=O)NO)ccc-2c(C(=O)OCC)c1NC(C)=O` [Beispiel 5, 2-Acetylamino-6-hydroxycarbamoylmethyl-azulen-1,3-dicarbonsäurediethylester], half-maximal inhibition (IC50) was put at 20 nM.

Consider `CCOC(=O)c1c2ccc(C(C(=O)NC(N)=O)C(=O)OCC)ccc-2c(C(=O)OCC)c1N` (centres unmarked) [Beispiel 6, 2-Amino-6-(1-ethoxycarbonyl-2-oxo-2-ureido-ethyl)-azulen-1,3-dicarbonsäurediethylester], for which the IC50 turned out to be 15000 nM.

Take `CC(C)(C)OC(=O)c1c2cccccc-2c(C(=O)OC(C)(C)C)c1N` [Beispiel 7, 2-Amino-azulen-1,3-dicarbonsäure-di-tert-butylester]: the midpoint of inhibition, the IC50, lay at 2800 nM.

Regarding `CCOC(=O)c1c2cccccc-2c(C(=O)OC(C)(C)C)c1N` [Beispiel 8, 2-Amino-azulen-1,3-dicarbonsäure-tert-butyl-ethylester], the concentration for half-maximal inhibition (IC50) is 8000 nM.

`CC(C)(C)OC(=O)c1c2ccc(Br)ccc-2c(C(=O)OC(C)(C)C)c1N` [Beispiel 9, 2-Amino-6-bromo-azulen-1,3-dicarbonsäure-di-tert-butylester]: the 50% inhibitory concentration (IC50) was determined as 2300 nM.

`CC(=O)N(C(C)=O)c1c(C(=O)OC(C)(C)C)c2ccc(Br)ccc-2c1C(=O)OC(C)(C)C` [Beispiel 10, 2-Diacetylamino-6-bromo-azulen-1,3-dicarbonsäure-di-tert-butylester] displayed an IC50 of 500 nM.

Regarding `CC(=O)N(C(C)=O)c1c(C(=O)OC(C)(C)C)c2ccc(C(C(=O)OC(C)(C)C)C(=O)OC(C)(C)C)ccc-2c1C(=O)OC(C)(C)C` [Beispiel 11, 6-(Bis-tert-butoxycarbonyl-methyl)-2-diacetylamino-azulene-1,3-dicarbonsäure-di-tert-butylester], half-maximal inhibition (IC50) was put at 4200 nM.
